For 9 compounds, kcat, Km and Ki results are on record in article PMC5843355, “Evaluation of the Trypanosoma brucei 6-oxopurine salvage pathway as a potential target for drug discovery” (PLoS Neglected Tropical Diseases, 2018).

Where “and” joins values, the source holds several entries; their conditions need not be identical. Equal entries are not always repeated. Where two headings read alike, the source gives them in different places.

The target in assay [1] is T1, HGPRT-II (Trypanosoma brucei brucei, UniProt Q38C93). Description: Steady-state kinetic constants of 6-oxopurine bases for HGPRT-II. The class given is biochemical. Particulars: PRib-PP 1 mM, pH 8.4, 25°C. As to the method: (§1) The concentration of enzyme in the assay (varied from 75–200 μg/ml for the two enzymes) and the concentration of PRib-PP was kept at 1 mM. The reaction was carried out using a 1.0 cm path length with a UV Visible spectrometer 1601 (Shimadzu) in the reaction buffer (0.1 M Tris, pH 8.4; 0.11 M MgCl2; at 25°C).

Assay [2] deals with T2, HGXPRT (Trypanosoma brucei brucei, UniProt Q38CA1). The experiment in a line: Steady-state kinetic constants of 6-oxopurine bases for HGXPRT. The settings on record: PRib-PP 1 mM, pH 8.4, 25°C. As to the method:
as §1

Assay [3] concerns the target T3, HGPRT-I (Trypanosoma brucei brucei, UniProt Q07010).
T3 construct: 6x His-tag (N); AcTEV cleavage site (N); made in house; host or cells: E. coli One Shot BL21(DE3)
The experiment in a line: Steady-state kinetic constants of 6-oxopurine bases for HGPRT-I. Format: biochemical. Particulars: PRib-PP 1 mM, pH 8.4, 25°C. As to the method: as §1

Assay [4] deals with T3, HGPRT-I. The experiment in a line: Inhibition studies, Ki for recombinant HGPRT-I (spectrophotometric assay). Format: biochemical. The settings on record: 0.1 M Tris pH 8.4, 0.11 M MgCl2, 25°C, parent ANP. The protocol:
as §1
(§2) The concentrations of inhibitors in the assay ranged from 1 nM to 100 μM, depending on the steady-state kinetics of the respective enzyme at that concentration of inhibitor. The reaction was preceded by 1 minute incubation of the respective enzyme with the given inhibitor. The Ki values were calculated using non-linear regression in GraphPad Prism5.

Assay [5] addresses T1, HGPRT-II. Description: Inhibition studies, Ki for recombinant HGPRT-II (spectrophotometric assay). The class given is biochemical. As to the method: as §1, §2
The target in assay [6] is T2, HGXPRT. Description: Inhibition studies, Ki for recombinant HGXPRT (spectrophotometric assay). Format: biochemical. Particulars: 0.1 M Tris pH 8.4, 0.11 M MgCl2, 25°C, parent ANP. The protocol:
as §1, §2

Setting [7] is: 0.1 M Tris pH 8.4, 0.11 M MgCl2, 25°C, parent ANP.

T3 sequence (Q07010 2-210 limits assumed): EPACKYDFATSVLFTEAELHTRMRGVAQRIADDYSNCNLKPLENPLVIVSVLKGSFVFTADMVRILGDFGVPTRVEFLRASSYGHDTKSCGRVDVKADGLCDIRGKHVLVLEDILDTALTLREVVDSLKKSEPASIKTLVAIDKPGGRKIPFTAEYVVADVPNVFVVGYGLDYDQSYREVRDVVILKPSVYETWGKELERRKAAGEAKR
T2 sequence (Q38CA1 entry or part of it): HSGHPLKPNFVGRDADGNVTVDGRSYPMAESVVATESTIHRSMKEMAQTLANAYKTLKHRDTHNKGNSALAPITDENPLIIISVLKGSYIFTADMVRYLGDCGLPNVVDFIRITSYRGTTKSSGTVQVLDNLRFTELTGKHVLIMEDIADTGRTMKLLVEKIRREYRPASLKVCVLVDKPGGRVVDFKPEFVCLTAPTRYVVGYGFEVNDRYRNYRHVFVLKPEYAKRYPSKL
T1 sequence (Q38C93 entry or part of it): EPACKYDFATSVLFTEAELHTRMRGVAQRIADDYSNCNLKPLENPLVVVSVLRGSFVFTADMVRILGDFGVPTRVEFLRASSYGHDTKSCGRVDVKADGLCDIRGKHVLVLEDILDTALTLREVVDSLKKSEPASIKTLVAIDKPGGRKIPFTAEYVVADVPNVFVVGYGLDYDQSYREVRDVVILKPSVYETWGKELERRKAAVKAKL

The kcat is the maximal rate divided by the concentration of active sites. Consider `Nc1nc2nc[nH]c2c(=O)[nH]1` [Guanine], for which the kcat came out at 0.05 s⁻¹ on HGPRT-II [1] and 1.36 s⁻¹ on HGXPRT [2].
As for `O=c1[nH]c(=O)c2nc[nH]c2[nH]1` [Xanthine], the figures for the Km result at HGPRT-I [3], on HGPRT-I [3] (listed as xanthine) and at HGPRT-II [1] were “No activity detected”, “no affinity” and “No activity detected”, respectively. Moreover, the kcat result on HGPRT-I [3] is “No activity detected”; on HGPRT-I [3] (listed as xanthine), “no activity”; on HGPRT-II [1] it was “No activity detected”; at HGPRT-II [1] (listed as xanthine), “no activity”.
What is called Ki is the equilibrium dissociation constant of an inhibitor or competing ligand from its target. As to `N#CCCN(CCn1cnc2c(=O)[nH]c(N)nc21)CCP(=O)(O)O` [compound 1], the inhibition constant (Ki) at HGPRT-I [4] (read-out: HGPRT-I Ki) stood at 13.5 ± 0.83 µM; on HGPRT-II [5] (setting [7]) it was 14.2 ± 0.61 µM; at HGXPRT [6] (read-out: HGXPRT Ki) it was 19.9 ± 1.75 µM.
The corresponding values for `Nc1nc2c(ncn2CCN(CCOCP(=O)(O)O)CCP(=O)(O)O)c(=O)[nH]1` [compound 2] are 0.11 µM, 0.25 ± 0.02 µM and 6.54 µM.
For `O=c1[nH]cnc2c1ncn2CCN(CCOCP(=O)(O)O)CCP(=O)(O)O` [compound 3], the Ki on HGPRT-I [4] (read-out: HGPRT-I Ki) was 0.12 µM and < 1 µM; at HGPRT-II [5] (setting [7]) it was 0.06 µM and < 1 µM; at HGXPRT [6] (read-out: HGXPRT Ki) it was 0.38 µM and < 1 µM.
Regarding `Nc1nc2c(ncn2CCN(CCN(CCP(=O)(O)O)CCP(=O)(O)O)CCP(=O)(O)O)c(=O)[nH]1` [compound 4], the inhibitory constant (Ki) on HGPRT-I [4] (read-out: HGPRT-I Ki) was 0.29 ± 0.02 µM; on HGPRT-II [5] (setting [7]), 0.31 ± 0.06 µM; at HGXPRT [6] (HGXPRT Ki), 1.86 ± 0.29 µM.
Regarding `O=c1[nH]cnc2c1ncn2CCN(CCN(CCP(=O)(O)O)CCP(=O)(O)O)CCP(=O)(O)O` [compound 5], the inhibition constant Ki at HGPRT-I [4] (read-out: HGPRT-I Ki) is 2.47 ± 0.44 µM; at HGPRT-II [5] (setting [7]) it was 7.02 ± 1.62 µM; on HGXPRT [6] (read-out: HGXPRT Ki), 10.5 ± 1.32 µM.
Take `Nc1nc2c(ncn2CC(COCP(=O)(O)O)COCP(=O)(O)O)c(=O)[nH]1` [compound 6]: the inhibition constant Ki was under 1 µM on HGPRT-I [4] (HGPRT-I Ki); 0.2 µM and < 1 µM on HGPRT-II [5]; under 1 µM on HGXPRT [6] (HGXPRT Ki).
`Nc1nc2c(ncn2CC(COCCP(=O)(O)O)OCCP(=O)(O)O)c(=O)[nH]1` (stereo not drawn) [compound 7]: the results for the Ki at HGPRT-I [4] (read-out: HGPRT-I Ki), at HGPRT-II [5] (setting [7]) and on HGXPRT [6] (read-out: HGXPRT Ki) were 0.89 ± 0.07 µM, 1.88 ± 0.17 µM and 0.77 ± 0.06 µM, respectively.
